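Cells were grown in 96-well plates and exposed to each compound for 48 hours at five concentrations; endpoints were interpolated linearly between bracketing concentrations, or set to the highest concentration if not reached. Abbreviation: GI50, concentration required for 50% inhibition of growth.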 The source made the active and inactive calls. No stated cut-off is given here; in the data, active = GI50 up to about 1.1 µM and inactive = higher.
Legend:
Assay in all cases: inhibition of tumour cell growth, NCI panel, 48 h
[1] = system: 786-0
[2] = system: A498
[3] = system: A549
[4] = system: ACHN
[5] = system: BT-549
[6] = system: CAKI-1
[7] = system: COLO 205
[8] = system: DU-145
[9] = system: EKVX
[10] = system: HCT-116
[11] = system: HCT-15
[12] = system: HL-60
[13] = system: HOP-62
[14] = system: HOP-92
[15] = system: HT-29
[16] = system: Hs-578T
[17] = system: IGROV-1
[18] = system: K562
[19] = system: KM12
[20] = system: LOX IMVI
[21] = system: M14
[22] = system: MCF7
[23] = system: MDA-MB-231
[24] = system: MDA-MB-435
[25] = system: MDA-N
[26] = system: MOLT-4
[27] = system: Malme-3M
[28] = system: NCI-H226
[29] = system: NCI-H23
[30] = system: NCI-H460
[31] = system: NCI-H522
[32] = system: NCI/ADR-RES
[33] = system: OVCAR-3
[34] = system: OVCAR-4
[35] = system: OVCAR-5
[36] = system: OVCAR-8
[37] = system: PC-3
[38] = system: RPMI-8226
[39] = system: SF-268
[40] = system: SF-295
[41] = system: SF-539
[42] = system: SK-MEL-28
[43] = system: SK-MEL-2
[44] = system: SK-MEL-5
[45] = system: SK-OV-3
[46] = system: SN12C
[47] = system: SNB-19
[48] = system: SR
[49] = system: SW-620
[50] = system: T47D
[51] = system: TK-10
[52] = system: U-251
[53] = system: UACC-257
[54] = system: UACC-62
[55] = system: UO-31
[56] = system: CCRF-CEM
[57] = system: HCC 2998
[58] = system: RXF 393
[59] = system: SNB-75

Measured: GI50

O=C(CCN1CCOCC1)Nc1ccc(F)cc1F
inactive: [1] > 100 µM | [2] > 100 µM | [3] > 100 µM | [4] > 100 µM | [5] > 100 µM | [6] > 100 µM | [7] > 100 µM | [8] > 100 µM | [9] > 100 µM | [10] > 100 µM | [12] > 100 µM | [13] > 100 µM | [14] > 100 µM | [15] > 100 µM | [16] > 100 µM | [17] > 100 µM | [18] > 100 µM | [19] > 100 µM | [20] > 100 µM | [21] > 100 µM | [22] > 100 µM | [23] > 100 µM | [24] > 100 µM | [25] > 100 µM | [26] > 100 µM | [27] > 100 µM | [28] > 100 µM | [29] > 100 µM | [30] > 100 µM | [31] > 100 µM | [32] > 100 µM | [33] > 100 µM | [34] > 100 µM | [35] > 100 µM | [36] > 100 µM | [37] > 100 µM | [38] > 100 µM | [39] > 100 µM | [40] > 100 µM | [41] > 100 µM | [42] > 100 µM | [43] > 100 µM | [44] > 100 µM | [45] > 100 µM | [46] > 100 µM | [47] > 100 µM | [48] > 100 µM | [49] > 100 µM | [50] > 100 µM | [51] > 100 µM | [52] > 100 µM | [53] > 100 µM | [54] > 100 µM | [55] > 100 µM
> 100 µM: [11]

CCC(CS(=O)(=O)O)[N+](=O)[O-] (centres undefined)
inactive: [1] > 100 µM | [2] > 100 µM | [3] > 100 µM | [4] > 100 µM | [5] > 100 µM | [6] > 100 µM | [56] > 100 µM | [7] > 100 µM | [8] > 100 µM | [9] > 100 µM | [57] > 100 µM | [10] > 100 µM | [12] > 100 µM | [13] > 100 µM | [15] > 100 µM | [16] > 100 µM | [17] > 100 µM | [18] > 100 µM | [19] > 100 µM | [20] > 100 µM | [21] > 100 µM | [22] > 100 µM | [23] > 100 µM | [24] > 100 µM | [25] > 100 µM | [26] > 100 µM | [27] > 100 µM | [28] > 100 µM | [29] > 100 µM | [30] > 100 µM | [31] > 100 µM | [32] > 100 µM | [33] > 100 µM | [34] > 100 µM | [35] > 100 µM | [36] > 100 µM | [37] > 100 µM | [38] > 100 µM | [58] > 100 µM | [39] > 100 µM | [40] > 100 µM | [41] > 100 µM | [42] > 100 µM | [43] > 100 µM | [44] > 100 µM | [45] > 100 µM | [46] > 100 µM | [47] > 100 µM | [59] > 100 µM | [49] > 100 µM | [50] > 100 µM | [51] > 100 µM | [52] > 100 µM | [53] > 100 µM | [54] > 100 µM | [55] > 100 µM
> 100 µM: [11]

C=CCN1C[C@@H](C)N([C@@H](c2ccc(C(=O)N(CC)CC)cc2)c2cccc(OC)c2)C[C@@H]1C
inactive: [1] > 100 µM | [2] > 100 µM | [3] > 100 µM | [4] > 100 µM | [5] > 100 µM | [6] > 100 µM | [56] 3.7 µM | [7] > 100 µM | [8] > 100 µM | [9] > 100 µM | [10] > 100 µM | [13] > 100 µM | [14] > 100 µM | [15] > 100 µM | [16] > 100 µM | [17] > 100 µM | [18] > 100 µM | [19] > 100 µM | [20] > 100 µM | [21] > 100 µM | [22] 49.8 µM | [23] > 100 µM | [24] > 100 µM | [25] > 100 µM | [26] > 100 µM | [27] > 100 µM | [28] > 100 µM | [29] > 100 µM | [31] > 100 µM | [32] > 100 µM | [33] > 100 µM | [34] > 100 µM | [35] > 100 µM | [36] > 100 µM | [37] > 100 µM | [38] > 100 µM | [39] > 100 µM | [40] > 100 µM | [41] > 100 µM | [42] > 100 µM | [43] > 100 µM | [44] > 100 µM | [45] > 100 µM | [46] > 100 µM | [47] > 100 µM | [48] > 100 µM | [49] > 100 µM | [50] > 100 µM | [52] > 100 µM | [54] > 100 µM | [55] > 100 µM
> 100 µM: [11]

Source: ChEMBL document CHEMBL1201862, “PubChem BioAssay data set” (2004)
